In the test the target is full-length human PRMT8 isoform 1 (Homo sapiens, UniProt Q9NR22). The test is described as follows: PRMT8 Biochemical Assay (3H-SAM Flashplate, peptide substrate). As to conditions: single experiment or average of multiple experiments; read-out: Biochemical IC50 PRMT8. A digest of the protocol:
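Full-length human PRMT8 (1.5 nM, E. coli-expressed, GST removed) preincubated 30 min at room temperature with compound, then reacted with 50 nM 3H-SAM plus 550 nM cold SAM and 150 nM biotinylated H4 31-45 peptide in 20 mM Bicine pH 7.6, 1 mM TCEP, 0.005% BSG, 0.002% Tween 20, 2% DMSO. Quenched with 400 uM cold SAM; labelled peptide captured on streptavidin Flashplate, % inhibition versus 1 mM SAH and DMSO controls fitted to 4- or 3-parameter curve.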

By IC50 is commonly meant the concentration at which inhibition is half-maximal.

Chain of full-length human PRMT8 isoform 1 (Q9NR22 whole entry, canonical isoform): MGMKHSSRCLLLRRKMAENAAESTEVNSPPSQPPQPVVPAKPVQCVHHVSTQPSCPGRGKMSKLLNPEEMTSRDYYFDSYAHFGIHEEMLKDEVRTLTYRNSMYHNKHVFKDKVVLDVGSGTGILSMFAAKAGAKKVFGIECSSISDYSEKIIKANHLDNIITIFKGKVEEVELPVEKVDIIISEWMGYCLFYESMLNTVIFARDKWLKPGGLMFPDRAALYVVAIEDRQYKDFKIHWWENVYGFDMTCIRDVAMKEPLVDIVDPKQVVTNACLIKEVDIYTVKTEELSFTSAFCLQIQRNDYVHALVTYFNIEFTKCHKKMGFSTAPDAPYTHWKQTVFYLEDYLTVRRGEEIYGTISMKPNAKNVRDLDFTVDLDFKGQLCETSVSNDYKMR

Turning to `CNCCN(C)Cc1c[nH]nc1C#Cc1ccccc1` [Compound 3], the IC50 worked out at 0.95 µM.
